Our source for the IC50 values is patent US20230148450A9, “BICYCLIC HETEROARYL COMPOUNDS AND USES THEREOF” (Revolution Medicines, Inc., priority 2019, published 2023).

Bounds are passed on as bounds.

In this experiment the target is T1, SOS1-mediated exchange of KRAS-4B:GDP to KRAS-4B:GTP (Homo sapiens, UniProt Q07889).
T1 construct: SOS1 (Cytoskeleton Inc., Cat. CS-GE02); purchased Cytoskeleton Inc. CS-GE02 (SOS1); CSRS03 (KRAS4-B)
T1 sequence (Q07889 564-1049 limits assumed): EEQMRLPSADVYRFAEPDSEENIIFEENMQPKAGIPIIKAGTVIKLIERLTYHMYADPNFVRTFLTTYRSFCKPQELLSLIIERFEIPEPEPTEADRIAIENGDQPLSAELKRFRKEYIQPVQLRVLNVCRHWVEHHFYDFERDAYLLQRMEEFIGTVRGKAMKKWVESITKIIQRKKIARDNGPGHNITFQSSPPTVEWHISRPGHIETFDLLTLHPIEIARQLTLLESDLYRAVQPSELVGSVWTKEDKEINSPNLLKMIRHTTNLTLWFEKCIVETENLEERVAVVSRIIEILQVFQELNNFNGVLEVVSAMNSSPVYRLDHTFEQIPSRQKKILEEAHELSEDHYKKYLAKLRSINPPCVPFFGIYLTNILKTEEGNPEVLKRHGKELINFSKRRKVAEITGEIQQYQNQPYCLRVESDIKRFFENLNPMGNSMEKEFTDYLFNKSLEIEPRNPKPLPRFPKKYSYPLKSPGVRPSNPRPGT
Kind of experiment: Bodipy-FL-GTP Association Assay. To be noted: SOS1 GEF activity on KRAS-4B, 22° C. It counts as biochemical. How it is done: A low IC50 value for a given compound is indicative of high potency of said compound in inhibiting the guanine nucleotide exchange factor (GEF) activity of SOS1 on KRAS-4B in this assay setting. Reagents: BODIPY FL GTP (ThermoFisher Scientific, Cat. G12411); KRAS4-B (Cytoskeleton Inc., Cat. CSRS03); SOS1 (Cytoskeleton Inc., Cat. CS-GE02); 2× Assay Buffer: 40 mM Tris-HCl, pH 7.5; 100 mM NaCl; 20 mM MgCl2; 0.1 mg/mL BSA; 0.02% NP-40 Assay Procedure: Test compounds were dissolved in DMSO to create 20 mM master stocks. The stocks were diluted in a 3× dilution series in 100% DMSO to achieve 100× compound stocks. A 1 μl spot of each test compound stock was delivered to two adjacent wells of a 96-well assay plate prior to running the assay. Reaction Mix preparation: The following were mixed in order at room temperature to obtain the “Reaction Mix” (5.75 mL 2× Exchange Buffer; 3.22 mL MilliQ ddH2O; 3 μL 5 mM BODIPY FL GTP; 230 μL 50 μM KRAS-4B; 9.203 mL Total volume. Reaction initiation: 80 μL of Reaction Mix was pipetted into each well of a half-area black 96-well plate (Corning, Cat. 3686) containing either a 1 μL spot of DMSO or a 1 μL spot test compound at the concentrations listed above. 20 μL of 1 μM SOS1 was then added to each well to initiate the reaction. For the no GEF control wells this was replaced with 1× exchange buffer. Kinetic measurement: The reaction was monitored in a SpectraMax M2 Microplate Reader (Molecular Devices) under the following protocol: 5 second rapid circular mixing before first read; 61 readings, 30 seconds apart; Assay temperature: 22° C.; Excitation wavelength: 485 nm; Emission wavelength: 513 nm. Data Analysis: The V max values for the SOS1-mediated BODIPY FL GTP exchange curves in the presence of test compounds were normalized to the most dilute test sample columns or DMSO only control wells to give the % Activity for each concentration of test compound. Plots of % Activity vs. the Log10 of the compound concentration were fit by non-linear regression to a 4-parameter logistic model.
Broadly, the IC50 is the concentration needed to halve the response being measured. A low value points to inhibition by little substance. `Cc1nc(N[C@H](C)c2cccc(C(F)(F)F)c2)c2cc(C3=CCNCC3)cn2n1` [Example 19] registered an IC50 of more than 5 µM.

As for `Cc1nc(N[C@H](C)c2cccc(C(F)(F)F)c2)c2sc([C@]3(O)CC[C@H](O)CC3)cc2n1` [Example 6, cis-1-(2-methyl-4-{[(1R)-1-[3-(trifluoromethyl)phenyl]ethyl]amino}thieno[3,2-d]pyrimidin-6-yl)cyclohexane-1,4-diol], the half-maximal inhibitory concentration (IC50) lay within 1 to 5 µM.

As to `CC(=O)N1CCN(c2cc3c(N[C@H](C)c4cccc(C(F)(F)F)c4)ncnn3c2)CC1` [Example 27], the IC50 is less than 1 µM.

The compound `C[C@@H](NC1=NC=NC2SC(C3(O)CCC(C(=O)N(C)C)CC3)=CC12)c1cc(N)cc(C(F)(F)F)c1` (stereo partly shown) [Example 23] came in with an IC50 of less than 1 µM.

The compound `CC(=O)N1CC=C(c2cc3c(N[C@H](C)c4cccc(C(F)(F)F)c4)ncnn3c2)CC1` [Example 15] gave an IC50 of more than 5 µM.

The compound `Cc1nc(N[C@H](C)c2cc(N)cc(C(F)(F)F)c2)c2cc(C3=CCNCC3)sc2n1` [Example 26] showed an IC50 of 1 to 5 µM.

In turn, `C[C@@H](Nc1ncnn2cc(C(=O)N3CCOCC3)cc12)c1cc(N)cc(C(F)(F)F)c1` [Example 16] yielded a concentration for half-maximal inhibition (IC50) of more than 5 µM.

As for `Cc1cn2nc(C(=O)N3CCN(C)CC3)cc2c(N[C@H](C)c2cccc(C(F)(F)F)c2)n1` [Example 25], the IC50 is more than 5 µM.

`Cc1cn2nc(C(=O)N3CCOCC3)cc2c(N[C@H](C)c2cccc(C(F)(F)F)c2)n1` [Example 24]: the IC50 was more than 5 µM.

Compound `C[C@@H](Nc1ncnn2cc(C3=CCNCC3)cc12)c1cc(N)cc(C(F)(F)F)c1` [Example 12, N-[(1R)-1-[3-amino-5-(trifluoromethyl)phenyl]ethyl]-6-(1,2,3,6-tetrahydropyridin-4-yl)pyrrolo[2,1-f][1,2,4]triazin-4-amine] registered an IC50 of less than 1 µM.

With `C[C@@H](Nc1ncnn2cc(C3=CCNCC3)cc12)c1cccc(C(F)(F)F)c1` [Example 14], the IC50 is 1 to 5 µM.

The compound `Cc1nc(N[C@H](C)c2cccc(C(F)(F)F)c2)c2sc(C3=CCNCC3)cc2n1` [Example 1, 2-methyl-6-(1,2,3,6-tetrahydropyridin-4-yl)-N-[(1R)-1-[3-(trifluoromethyl)phenyl]ethyl]thieno [3,2-d] pyrimidin-4-amine] registered an IC50 of 1 to 5 µM.

`C[C@@H](Nc1ncnc2sc(C3(O)CCC(O)CC3)cc12)c1cc(N)cc(C(F)(F)F)c1` (stereo partly drawn) [Example 7, 1-(4-{[(1R)-1-[3-amino-5-(trifluoromethyl)phenyl]ethyl]amino}thieno[2,3-d]pyrimidin-6-yl)cyclohexane-1,4-diol]: the IC50 was less than 1 µM.

For `C[C@@H](Nc1nccn2cc(C(=O)N3CCN(C)CC3)nc12)c1cc(N)cc(C(F)(F)F)c1` [Example 10, N-[(1R)-1-[3-amino-5-(trifluoromethyl)phenyl]ethyl]-2-(4-methylpiperazine-1-carbonyl)imidazo[1,2-a]pyrazin-8-amine], the IC50 lay within 1 to 5 µM.

As for `C[C@@H](Nc1ncnc2sc(C3=CCNCC3)cc12)c1cc(N)cc(C(F)(F)F)c1` [Example 3, N-[(1R)-1-[3-amino-5-(trifluoromethyl)phenyl]ethyl]-6-(1,2,3,6-tetrahydropyridin-4-yl)thieno[2,3-d]pyrimidin-4-amine], the IC50 is 1 to 5 µM.

`Cc1nc(N[C@H](C)c2cccc(C(F)(F)F)c2)c2sc([C@]3(O)CC[C@@H](O)CC3)cc2n1` [Example 5, trans-1-(2-methyl-4-{[(1R)-1-[3-(trifluoromethyl)phenyl]ethyl]amino}thieno[3,2-d]pyrimidin-6-yl) cyclohexane-1,4-diol] showed an IC50 of more than 5 µM.

With `CC(=O)N1CC=C(c2cc3c(N[C@H](C)c4cc(N)cc(C(F)(F)F)c4)ncnn3c2)CC1` [Example 13, 1-[4-[4-[[(1R)-1-[3-amino-5-(trifluoromethyl)phenyl]ethyl]amino]pyrrolo[2,1-f][1,2,4]triazin-6-yl]-3,6-dihydro-2H-pyridin-1-yl]ethanone], the IC50 lay within 1 to 5 µM.

The compound `C[C@@H](Nc1nc(C2CC2)nn2cc(C3=CCNCC3)cc12)c1cccc(C(F)(F)F)c1` [Example 20] gave an IC50 of more than 5 µM.

Consider `C[C@@H](Nc1ncnn2cc(C3CCNCC3)cc12)c1cc(N)cc(C(F)(F)F)c1` [Example 11, N-[(1R)-1-[3-amino-5-(trifluoromethyl)phenyl]ethyl]-6-(piperidin-4-yl)pyrrolo[2,1-f][1,2,4]triazin-4-amine], for which the concentration for half-maximal inhibition (IC50) was less than 1 µM.

Turning to `C[C@@H](Nc1ncnc2cc(C3=CCNCC3)sc12)c1cc(N)cc(C(F)(F)F)c1` [Example 9, N-[(1R)-1-[3-amino-5-(trifluoromethyl)phenyl]ethyl]-6-(1,2,3,6-tetrahydropyridin-4-yl)thieno[3,2-d]pyrimidin-4-amine], the IC50 is less than 1 µM.

As to `COCC(=O)N1CC=C(c2cnc3c(N[C@H](C)c4cccc(C(F)(F)F)c4)nccn23)CC1` [Example 22], the IC50 was more than 5 µM.

On to `C[C@@H](Nc1nccn2cc(C(=O)N3CCN(C)CC3)nc12)c1cccc(C(F)(F)F)c1` [Example 18], for which the IC50 is more than 5 µM.

`COCC(=O)N1CC=C(c2cc3c(N[C@H](C)c4cc(N)cc(C(F)(F)F)c4)ncnc3s2)CC1` [Example 4, 1-[4-(4-{[(1R)-1-[3-amino-5-(trifluoromethyl)phenyl]ethyl]amino}thieno[2,3-d]pyrimidin-6-yl)-1,2,3,6-tetrahydropyridin-1-yl]-2-methoxyethan-1-one] registered an IC50 of 1 to 5 µM.

`C[C@@H](Nc1nccn2cc(C(=O)NC[C@H]3CCOC3)nc12)c1cccc(C(F)(F)F)c1` [Example 17] gave an IC50 of more than 5 µM.

Consider `COc1nc(N[C@H](C)c2cccc(C(F)(F)F)c2)c2cc(C3=CCNCC3)cn2n1` [Example 21], for which the IC50 fell in the range of 1 to 5 µM.
